Experiments:
[1] = system: A549-ACE2; test: drug-induced phospholipidosis relative to tamoxifen; higher = more phospholipidosis
[2] = system: A549-ACE2 infected with SARS-CoV-2; test: SARS-CoV-2 infection rate relative to DMSO; higher = more infection; conditions: 24 h
[3] = system: Calu-3; test: drug sensitivity score (DSS) for viability; higher = more toxic; extreme values may be limits of the assay; conditions: 72 h
[4] = system: Vero E6; test: as above; conditions: 72 h
[5] = system: U2OS; test: as above; conditions: 72 h
[6] = system: Caco-2; test: as above; conditions: 72 h
[7] = system: HepG2; test: as above; conditions: 72 h
[8] = system: A549-ACE2 infected with SARS-CoV-2; test: cell count relative to DMSO; higher = less toxic; conditions: 24 h
[9] = system: Calu-3; test: cell viability relative to DMSO; higher = less toxic; conditions: 72 h
[10] = system: Vero E6; test: as above; conditions: 72 h
[11] = system: U2OS; test: as above; conditions: 72 h
[12] = system: Caco-2; test: as above; conditions: 72 h
[13] = system: HepG2; test: as above; conditions: 72 h
[14] = system: A549-ACE2 infected with SARS-CoV-2; test: morphology score (similarity to uninfected cells); higher = more like uninfected cells; conditions: 24 h
[15] = system: Calu-3; test: relative viability EC50 (midpoint between 100% and the lowest measured viability); higher = less toxic; conditions: 72 h
[16] = system: Caco-2; test: as above; conditions: 72 h
[17] = system: Vero E6; test: as above; conditions: 72 h
[18] = system: HepG2; test: as above; conditions: 72 h
[19] = system: A549-ACE2; test: phospholipidosis EC50; higher = less potent phospholipidosis inducer
[20] = system: U2OS; test: relative viability EC50 (midpoint between 100% and the lowest measured viability); higher = less toxic; conditions: 72 h

COc1c(OCCCN2CCOCC2)ccc2c1N=C(NC(=O)c1cnc(N)nc1)N1CCN=C21 [copanlisib]
drug-induced phospholipidosis [%], [1]
Conditions | 0.3 µM | 0.833333 µM | 3.33333 µM | 6.66667 µM | 10 µM | 30 µM
24 h | -3.17 | -4.37 | 0.15 | 5.67 | 10.8 | 56.5
48 h | -1.4 | -3.62 | 0.68 | 3.97 | 5.69 | –
72 h | -0.924 | -3.86 | 0.214 | 2.05 | – | –

Conditions | SARS-CoV-2 infection rate, [2] [%] | cell count, [8] [%] | cell viability, [9] [%] | cell viability, [10] [%] | cell viability, [11] [%] | cell viability, [12] [%] | cell viability, [13] [%] | morphology score, [14]
1 nM | – | – | 102 | 98.8 | 101 | 99.2 | 98.5 | –
10 nM | – | – | 93.1 | 105 | 96.2 | 98.7 | 109 | –
0.1 µM | 101 | 101 | – | – | – | – | – | 0.23
100 nM | – | – | 95.4 | 96 | 98.2 | 94.6 | 101 | –
0.3 µM | 97 | 100 | – | – | – | – | – | 0.09
1 µM | 90 | 98 | – | – | – | – | – | 0.35
1000 nM | – | – | 73.4 | 89.8 | 96.9 | 86.9 | 71 | –
3 µM | 92 | 83 | – | – | – | – | – | 0.32
10000 nM | – | – | 32.9 | 65.1 | 67.5 | 34.9 | 51.9 | –

Conditions | drug sensitivity score | relative viability EC50 [µM]
[3] | 6.8 | –
[4] | 2.9 | –
[5] | 2 | –
[6] | 5.7 | –
[7] | 6 | –
[15] | – | 1.26
[16] | – | 1.73

CCN1CCC(n2cc(CNc3cc(Cl)c4ncc(C#N)c(Nc5ccc(F)c(Cl)c5)c4c3)nn2)CC1 [cot-inhibitor-2]
drug-induced phospholipidosis [%], [1]
Conditions | 0.3 µM | 0.833333 µM | 3.33333 µM | 6.66667 µM
24 h | -0.44 | -4.12 | -0.13 | 29.3
48 h | -2.64 | -3.78 | 2.2 | –
72 h | 1.59 | -0.868 | 0.286 | –

Conditions | SARS-CoV-2 infection rate, [2] [%] | cell count, [8] [%] | cell viability, [9] [%] | cell viability, [10] [%] | cell viability, [11] [%] | cell viability, [12] [%] | cell viability, [13] [%] | morphology score, [14]
1 nM | – | – | 110 | 95.7 | 102 | 105 | 102 | –
10 nM | – | – | 92 | 101 | 96.4 | 99.9 | 109 | –
100 nM | – | – | 111 | 101 | 97.4 | 93.3 | 91.3 | –
0.3 µM | 93 | 102 | – | – | – | – | – | 0.17
1000 nM | – | – | 96.6 | 99.8 | 93.2 | 94.6 | 100 | –
3 µM | 47 | 112 | – | – | – | – | – | 0.77
10 µM | 26 | 66 | – | – | – | – | – | 0.43
10000 nM | – | – | 87 | 81.6 | 66 | 47.4 | 43.9 | –

Conditions | drug sensitivity score | relative viability EC50 [µM]
[3] | 0.3 | –
[4] | 0.5 | –
[5] | 2.7 | –
[6] | 3.7 | –
[7] | 3 | –
[15] | – | > 10
[16] | – | 2.31
[17] | – | > 10
[18] | – | 3.19

CCN(CC)CCCC(C)Nc1c2ccc(Cl)cc2nc2ccc(OC)cc12 (stereo not given) [mepacrine]
Conditions | morphology score, 0.1 µM | morphology score, 0.3 µM | morphology score, 1 µM | morphology score, 3 µM | phospholipidosis EC50, 24 h [µM] | phospholipidosis EC50, 48 h [µM] | phospholipidosis EC50, 72 h [µM]
[14] | 0.52 | 0.52 | 0.63 | 0.79 | – | – | –
[19] | – | – | – | – | 15.8 | 5.62 | 3

Conditions | drug sensitivity score
[3] | 5.7
[4] | 7.2
[5] | 4
[7] | 8.9

CC(C)Oc1ccc(-c2nc(-c3cccc4c3CC[C@@H]4NCCO)no2)cc1C#N [ozanimod]
drug-induced phospholipidosis [%], [1]
Conditions | 0.3 µM | 0.833333 µM | 3.33333 µM | 6.66667 µM | 10 µM
24 h | 6.09 | 18 | 72.5 | 83.5 | 92.3
48 h | -8.87 | 1.18 | 67.1 | 90.1 | 96.7
72 h | -6.97 | 0.974 | 62.1 | 108 | 122

Conditions | SARS-CoV-2 infection rate, [2] [%] | cell count, [8] [%] | cell viability, [9] [%] | cell viability, [10] [%] | cell viability, [11] [%] | cell viability, [12] [%] | cell viability, [13] [%] | morphology score, [14]
1 nM | – | – | 94.5 | 103 | 95.2 | 95.2 | 120 | –
10 nM | – | – | 87.2 | 96.1 | 105 | 75.2 | 101 | –
0.1 µM | 96 | 104 | – | – | – | – | – | 0.14
100 nM | – | – | 93.3 | 102 | 94.9 | 69.7 | 106 | –
0.3 µM | 111 | 100 | – | – | – | – | – | 0.03
1 µM | 91 | 100 | – | – | – | – | – | 0.33
1000 nM | – | – | 96.6 | 103 | 97.8 | 77.6 | 100 | –
3 µM | 44 | 114 | – | – | – | – | – | 0.77
10000 nM | – | – | 73.1 | 76.7 | 72.2 | 73 | 44.4 | –

Conditions | drug sensitivity score | relative viability EC50 [µM]
[3] | 1.6 | –
[4] | 0.6 | –
[5] | 1.5 | –
[6] | 12.1 | –
[7] | 3 | –
[17] | – | > 10
[18] | – | 3.17

Cc1nc(Nc2ccc(F)cc2)nc(N2CCc3ccccc3C2C)c1C (stereo not given) [revaprazan]
drug-induced phospholipidosis [%], [1]
Conditions | 0.3 µM | 0.833333 µM | 3.33333 µM | 6.66667 µM | 10 µM | 30 µM
24 h | 0.84 | 3.77 | 8.66 | 7.71 | 18.8 | 34.5
48 h | 2.14 | 1.27 | 2.71 | 2.07 | 8.48 | 17.2
72 h | 2.77 | -0.285 | 3.45 | 3.85 | 13.8 | 30.9

Conditions | SARS-CoV-2 infection rate, [2] [%] | cell count, [8] [%] | cell viability, [9] [%] | cell viability, [10] [%] | cell viability, [11] [%] | cell viability, [12] [%] | cell viability, [13] [%] | morphology score, [14]
1 nM | – | – | 97.5 | 90.2 | 101 | 98.3 | 98.2 | –
10 nM | – | – | 102 | 106 | 100 | 96.7 | 106 | –
100 nM | – | – | 106 | 92.7 | 102 | 104 | 96.3 | –
0.3 µM | 91 | 105 | – | – | – | – | – | 0.16
1000 nM | – | – | 92 | 98.1 | 97.1 | 97.6 | 110 | –
3 µM | 61 | 110 | – | – | – | – | – | 0.59
10 µM | 33 | 115 | – | – | – | – | – | 0.78
10000 nM | – | – | 99.8 | 95.8 | 81.5 | 71.6 | 60.4 | –
30 µM | 19 | 99 | – | – | – | – | – | 0.77

Conditions | drug sensitivity score | relative viability EC50 [µM]
[3] | 0 | –
[4] | 0 | –
[5] | 0.8 | –
[6] | 1.6 | –
[7] | 1.5 | –
[15] | – | > 10
[17] | – | > 10
[20] | – | > 10

Source: the supplement of paper PMC13380429
